The subject of test [1] is C. rodentium. As to the kind of experiment: Pharmacological inhibition of MgI in C. rodentium infected mice (FIG. 23). The class given is in vivo, mouse.
Test [2] concerns S. Typhimurium. In words: SipA secretion by S. Typhimurium under SPI-1-inducing conditions. Type of test: cell-based, Salmonella enterica serovar Typhimurium. To be noted: 10 μM 2-AG.
The subject of test [3] is EHEC. In words: Growth kinetics of EHEC under LEE-inducing conditions (FIG. 11). The following applies: 10 μM 2-AG, microaerobic, DMEM-low glucose. Type of test: cell-based, Escherichia coli O157:H7.
Test [4] concerns S. Typhimurium. In words: Transcript levels of SPI-2 genes in S. Typhimurium. The class given is cell-based, Salmonella enterica serovar Typhimurium. To be noted: 10 μM 2-AG, SPI-2-inducing conditions, 3 hours.
The test system of test [5] is S. Typhimurium. As to the kind of experiment: Growth curves of S. Typhimurium under SPI-1-inducing conditions. Type of test: cell-based, Salmonella enterica serovar Typhimurium. The following applies: 10 μM 2-AG.
Test [6] deals with EHEC. As to the kind of experiment: Fluorescent actin staining (FAS) assay, EHEC pedestal formation on HeLa cells. Type of test: cell-based, Escherichia coli O157:H7. To be noted: EHEC treated with 10 μM 2-AG prior to infection of HeLa cells.
Test [7] concerns EHEC. The class given is cell-based, Escherichia coli O157:H7.
Test [8] concerns EHEC. In words: Growth curves of EHEC in the presence of AA and AG (FIG. 22). The class given is cell-based, Escherichia coli. The following applies: concentrations of 80 and 160 μM. The source says: (§1) FIG. 22. Growth curves for Staphylococcus aureus (left side graphs) and EHEC (right side graphs) in the presence of AA (top graphs) and AG (bottom graphs).
(§2) Some lipids are antimicrobial with respect to certain bacteria.

In test [9] the test system is EHEC. Type of test: cell-based, Escherichia coli O157:H7. This is another data set of the same source.
The subject of test [10] is C. rodentium. Type of test: cell-based, Citrobacter rodentium.
In test [11] the test system is S. Typhimurium. As to the kind of experiment: Macrophage infection, intramacrophagic survival of S. Typhimurium in J774.1 murine macrophages. The class given is cell-based, Salmonella enterica serovar Typhimurium.
Test [12] concerns S. Typhimurium. As to the kind of experiment: Targeted qPCR of SPI-1 genes in S. Typhimurium. The class given is cell-based, Salmonella enterica serovar Typhimurium. The following applies: 10 μM 2-AG, SPI-1-inducing conditions, late-log phase. A general note: In qPCR the cycle at which signal appears reflects the starting amount.
For another test, the target named is T1, QseC (Escherichia coli O157:H7, UniProt Q8X524).
T1 construct: Myc (C); His (C); made in house; host or cells: E. coli BL21(DE3) (printed 'B121 DE3'), arabinose induction, Ni-NTA purification
As to the kind of experiment: Autophosphorylation of QseC in liposomes. Type of test: biochemical.

For test [13], the system named is EHEC. As to the kind of experiment: Western blots of lysate-associated EspA, EspB and Tir in EHEC. Type of test: cell-based, Escherichia coli O157:H7. To be noted: late-log phase. (Immunoblotting shows a protein as a band on a membrane.)
Test [14] has as its system C. rodentium. In words: Western blots of secreted translocon components EspA and EspB, C. rodentium. The class given is cell-based, Citrobacter rodentium. The following applies: physiological concentrations of 2-AG, late-log phase.
Another test deals with T2, CpxA (Escherichia coli O157:H7, UniProt P0AE84).
T2 construct: made in house; host or cells: E. coli BL21(DE3) (printed 'B121 DE3'), IPTG induction, Ni-NTA purification
T2 sequence (P0AE84 1-457): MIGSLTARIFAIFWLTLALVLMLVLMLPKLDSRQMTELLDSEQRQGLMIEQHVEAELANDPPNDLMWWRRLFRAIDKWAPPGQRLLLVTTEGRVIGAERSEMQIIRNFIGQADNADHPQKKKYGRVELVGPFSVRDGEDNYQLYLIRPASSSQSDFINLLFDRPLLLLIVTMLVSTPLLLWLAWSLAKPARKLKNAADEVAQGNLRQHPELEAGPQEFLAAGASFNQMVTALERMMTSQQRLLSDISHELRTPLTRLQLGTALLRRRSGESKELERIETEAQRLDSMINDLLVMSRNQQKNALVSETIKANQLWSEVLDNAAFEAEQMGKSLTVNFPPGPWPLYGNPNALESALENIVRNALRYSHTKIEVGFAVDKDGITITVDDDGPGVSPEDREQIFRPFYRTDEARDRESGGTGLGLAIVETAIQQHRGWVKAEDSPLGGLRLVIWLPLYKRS
In words: Autophosphorylation of CpxA in liposomes. Type of test: biochemical. The following applies: 10 μM 2-AG, 120 seconds or 10 minutes.

Test [15] deals with S. Typhimurium. In words: Epithelial invasion assay, S. Typhimurium on HeLa cells. The class given is cell-based, Salmonella enterica serovar Typhimurium. The following applies: ST treated with 10 μM 2-AG prior to infection of HeLa cells.
Test [16] deals with EHEC. In words: Western blots of secreted translocon components EspA and EspB, EHEC (LEE-encoded T3SS activity). Type of test: cell-based, Escherichia coli O157:H7.
The subject of test [17] is C. rodentium. In words: Growth kinetics of C. rodentium under LEE-inducing conditions (FIG. 11). To be noted: 10 μM 2-AG, microaerobic, DMEM-low glucose. Type of test: cell-based, Citrobacter rodentium.
The next test has as its system FusK. In words: qRT-PCR of LEE-encoded tir in EHEC ΔfusK. The class given is cell-based, Escherichia coli O157:H7. The following applies: 20 μM 2-AG, aerobic.
The test system of a further test is Citrobacter rodentium. In words: Cannabidiol treatment of C. rodentium infected mice (fecal colony counts). The class given is in vivo, mouse. The following applies: single dose one-day post-infection.
The subject of test [18] is EHEC 86-24. In words: EspA immunoblot of EHEC grown with CBD. Type of test: cell-based, Escherichia coli O157:H7. To be noted: 50 μM CBD.
Another test relates to EHEC strain 86-24. In words: qPCR of espA in EHEC grown in LG-DMEM with CBD. Type of test: cell-based, Escherichia coli O157:H7.
Test [19] relates to EHEC 86-24. In words: Growth rate and growth yield of EHEC with CBD. The class given is cell-based, Escherichia coli O157:H7.
The subject of another test is Staphylococcus aureus. As to the kind of experiment: Growth curves of Staphylococcus aureus in the presence of AA and AG (FIG. 22). The class given is cell-based.
Excerpt: as §1, §2

[20] abbreviates: physiological concentrations of 2-AG, late-log phase.

T1 sequence (Q8X524 whole entry): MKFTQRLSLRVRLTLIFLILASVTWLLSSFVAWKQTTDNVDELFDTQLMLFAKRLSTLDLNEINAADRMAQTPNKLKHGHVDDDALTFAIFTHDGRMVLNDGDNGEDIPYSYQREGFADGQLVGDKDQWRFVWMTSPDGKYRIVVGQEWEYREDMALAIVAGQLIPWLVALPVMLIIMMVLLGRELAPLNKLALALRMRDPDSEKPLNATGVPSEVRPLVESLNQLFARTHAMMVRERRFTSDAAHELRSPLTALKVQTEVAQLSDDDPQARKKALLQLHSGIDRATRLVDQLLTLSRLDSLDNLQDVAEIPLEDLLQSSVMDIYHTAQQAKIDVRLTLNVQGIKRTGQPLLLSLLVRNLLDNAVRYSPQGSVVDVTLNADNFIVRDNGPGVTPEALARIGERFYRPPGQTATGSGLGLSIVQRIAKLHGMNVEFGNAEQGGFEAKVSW

As to `O=C(Oc1ccc([N+](=O)[O-])cc1)N1CCC(C(O)(c2ccc3c(c2)OCO3)c2ccc3c(c2)OCO3)CC1` [JZL184], the “colonization of cecum tissues by C. rodentium” value with C. rodentium [1] is listed as “decreases colonization of cecum tissues”.
Regarding `CCCCC/C=C\C/C=C\C/C=C\C/C=C\CCCC(=O)OC(CO)CO` [2-AG, 2-arachidonoyl-glycerol], in the test with S. Typhimurium [2], the “secretion of SipA” value is listed as “decreased secretion of SipA”. In the test on EHEC [3], the “growth of EHEC” value is “did not correspond with altered growth”. In the test with S. Typhimurium [4], the “expression of ssaV” value was “decreased expression” and the “expression of sseF” value is on record as “decreased expression”. The “S. Typhimurium growth kinetics” value in the test on S. Typhimurium [5] is “did not alter”. The “pedestal formation on epithelial cells (A/E lesion formation)” value in the test on EHEC [6] was “decreased pedestal formation”. Besides, in the test on EHEC [7], the “differentially expressed KEGG pathways (RNAseq)” value is recorded as “significantly altered the expression four KEGG pathways”, the “expression of LEE-encoded genes (RNAseq)” value is “significant downregulation of numerous LEE-encoded genes” and the “non-LEE encoded genes differentially expressed (RNAseq)” value is “few non-LEE encoded genes were differentially expressed”. The “growth of EHEC” value in the test on EHEC [8] is listed as “does not inhibit growth”. Besides, in the test with EHEC [9], the “LEE transcription, targeted qPCR of LEE-encoded genes spanning its five operons” value was “inhibitory effects of 2-AG on LEE transcription were confirmed” and the “transcription of Shiga toxin (stx2a)” value is listed as “no transcriptional effect”. The “expression of LEE-encoded genes in C. rodentium” value with C. rodentium [10] is given as “decreased expression of LEE-encoded genes”. Further, the survival within macrophages result in the test with S. Typhimurium [11] is listed as “decreased survival within macrophages”. Further, in the test with S. Typhimurium [12], the “expression of hilD” value is listed as “inhibits expression”, the “expression of sipA” value is “inhibits expression” and the “expression of sopB” value was “inhibits expression”. In addition, the “Epi-mediated activation of QseC” value on QseC (6 μM 2-AG, 50 μM epinephrine, 30 minutes) is on record as “inhibited Epi-mediated activation of QseC”. Besides, the “QseC activation (autophosphorylation)” value at QseC (QseC reconstituted into liposomes) was “significantly diminished”. For the same compound, in the test with EHEC [13], the “protein expression of EspA in EHEC lysates” value is recorded as “significantly decreased”, the “protein expression of EspB in EHEC lysates” value is reported as “significantly decreased” and the “protein expression of Tir in EHEC lysates” value is “significantly decreased”. Moreover, in the test with C. rodentium [14], the “EspA secretion, C. rodentium” value is recorded as “significantly reduced” and the “EspB secretion, C. rodentium” value is on record as “significantly reduced”. Also, the “activity of CpxA (autophosphorylation)” value on CpxA was “did not inhibit”. For the same compound, the epithelial invasiveness entry in the test with S. Typhimurium [15] was “attenuated epithelial invasiveness”. Further, the “LEE activity in isogenic fadL mutant” value with EHEC [16] (EHEC ΔfadL, 10 μM 2-AG) is “no longer inhibited”. For the same compound, in the test with EHEC [16] (setting [20]), the “EspA secretion, EHEC” value is “significantly reduced” and the “EspB secretion, EHEC” value was “significantly reduced”. In addition, the “LEE functional activity in the qseC mutant in EHEC” value with EHEC [16] (qseC isogenic mutant, 10 μM 2-AG) was “not affected”. In addition, the “growth of C. rodentium” value in the test with C. rodentium [17] is “did not correspond with altered growth”. For the same compound, the “activity of FusK” value in the test on FusK is given as “did not inhibit”.
Turning to `Cc1c(C(=O)NN2CCCCC2)nn(-c2ccc(Cl)cc2Cl)c1-c1ccc(I)cc1` [AM251, reference compound], the “effect on 2-AG-mediated inhibition of QseC activity” value at QseC (6 μM 2-AG and AM251, 30 minutes, liposome system) is listed as “prevented 2-AG-mediated inhibition of QseC activity”.
For the compound `CCCCC/C=C\C/C=C\C/C=C\C/C=C\CCCC(=O)OC[C@@H](O)CO` [1-AG, reference compound], the “LEE-encoded T3SS activity (EspA and EspB secretion)” value with EHEC [16] (1-AG in contrast to 2-AG, late-log phase) was “does not attenuate LEE-encoded T3SS activity”.
For the compound `C=C(C)[C@@H]1CCC(C)=C[C@H]1c1c(O)cc(CCCCC)cc1O` [CBD, cannabidiol], the “ability of Citrobacter rodentium to colonize the intestines of mice” value in the test with Citrobacter rodentium is “inhibited the ability”. In addition, the “expression of EspA protein (immunoblot)” value in the test with EHEC 86-24 [18] is “reduced expression of EspA”. Moreover, in the test with EHEC strain 86-24 (wt EHEC 86-24, 50 μM CBD), the “decrease in expression of espA compared to the vehicle” value amounted to 20.6 fold. Also, the “reduction in expression of espA between the control and CBD” value in the test on EHEC strain 86-24 (ΔqseC deletion strain, 50 μM CBD) came to 17.5 fold. Moreover, the “growth rate and growth yield” value with EHEC 86-24 [19] was “neither the growth rate nor the growth yield for the wt and ΔqseC deletion strains were significantly altered”.
Take `CCCCC/C=C\C/C=C\C/C=C\C/C=C\CCCC(=O)O` [Arachidonic acid]: the “growth of S. aureus” value in the test on Staphylococcus aureus is reported as “inhibits the growth”.
As to `CCCCC/C=C\C/C=C\C/C=C\C/C=C\CCCC(=O)NCCO` [anandamide, reference compound], in the test on EHEC [16] (anandamide 100 or 200 nM, late-log phase), the “LEE activity (EspA and EspB secretion)” value is listed as “does not alter LEE activity”.

For the origin of these results see patent US20210330603A1 (priority 2020, published 2021).
